Results as given in publication PMC6572338 (2019).

Columns and labels:
[1] = test system: c-myc_G4_2345; Pu21_2345 (DNA, G4) GAGGGTGGGGAGGGTGGGGAA; assay: SPR (Biacore 3000), 1:1 Langmuir kinetics; conditions: 200 mM KCl, 5 mM MgCl2, 20 mM HEPES pH 7.5, 1% DMSO, 0.005% P-20, immobilised compound
[2] = test system: C-mycG4 (Pu-27); C-myc G4 (DNA, G4) TGGGGAGGGTGGGGAGGGTGGGGAAGG; assay: SPR (Biacore 3000), 1:1 Langmuir kinetics; conditions: 200 mM KCl, 5 mM MgCl2, 20 mM HEPES pH 7.5, 1% DMSO, 0.005% P-20, immobilised compound
[3] = test system: C-kit1; C-kit1 G4 (DNA, G4) AGGGAGGGCGCTGGGAGGAGGG; assay: SPR (Biacore 3000), 1:1 Langmuir kinetics; conditions: 200 mM KCl, 5 mM MgCl2; 20 mM HEPES pH 7.5, 1% DMSO, 0.005% P-20; immobilised compound
[4] = test system: Pu27rev (DNA, single strand) ATCGATCGCTTCTTCGTCCTTCCCCA; assay: SPR (Biacore 3000); conditions: 200 mM KCl, 5 mM MgCl2; 20 mM HEPES pH 7.5, 1% DMSO, 0.005% P-20; immobilised compound; NB, oligonucleotide up to 10 uM
[5] = test system: c-myc_G4_1234; Pu21_1234 (DNA, G4) TGGGGAGGGTGGGGAGGGTGG; assay: SPR (Biacore 3000), 1:1 Langmuir kinetics; conditions: 200 mM KCl, 5 mM MgCl2, 20 mM HEPES pH 7.5, 1% DMSO, 0.005% P-20, immobilised compound
[6] = test system: C-kit2; C-kit2 G4 (DNA, G4) GGGCGGGCGCGAGGGAGGGG; assay: SPR (Biacore 3000), 1:1 Langmuir kinetics; conditions: 200 mM KCl, 5 mM MgCl2; 20 mM HEPES pH 7.5, 1% DMSO, 0.005% P-20; immobilised compound
[7] = test system: C-mycG4 (Pu-27); C-myc G4 (DNA, G4) TGGGGAGGGTGGGGAGGGTGGGGAAGG; assay: PCR-stop assay; conditions: 50 mM KCl; Platinum Supermix, 0.5 uM each oligonucleotide, Pu27rev primer; dose-dependent reduction of product

With Cc1cnccc1N1CCN(c2nccc3c2nc(-c2c[nH]c4ccncc24)n3CCOCCOCCNC(=O)CCCC[C@@H]2SC[C@@H]3NC(=O)N[C@@H]32)CC1 the KD ([1]; text prints 190 nM) was 197 nM, the KD [2] was 328 nM and the KD [3] was 807 nM. For the same molecule, the binding [4] was “no”, the KD [5] was 59 nM and the KD [6] was 1400 nM.

For Cn1cccc1CN(CC(=O)NCCOCCOCCNC(=O)CCCC[C@@H]1SC[C@@H]2NC(=O)N[C@@H]21)Cc1ccc(OCC(=O)NCc2nc3ccccc3c(=O)[nH]2)c(Cl)c1, the KD [1] was 308 nM, the KD ([2]; text prints 1.06 µM) was 1050 nM and the KD [3] was 1100 nM. The binding [4] was “no”, the KD ([5]; text prints 328 nM) was 338 nM and the KD [6] was 1700 nM.

For Cn1cccc1CN(CC(=O)NCCOCCOCCN)Cc1ccc(OCC(=O)NCc2nc3ccccc3c(=O)[nH]2)c(Cl)c1, the binding [7] was “yes”.

For Cc1cnccc1N1CCN(c2nccc3c2nc(-c2c[nH]c4ccncc24)n3CCOCCOCCN)CC1, the binding [7] was “yes”.
